Data from patent EP0752872B1, “NADH OXIDASE AS A TARGET IN DIAGNOSIS AND THERAPY” (Morré, D. James, priority 1994, dated 1995).
Where two headings read alike, the source gives them in different places.

Columns and labels:
[1] = molecular target: T1, NADH oxidase from HeLa cell plasma membranes (Homo sapiens, UniProt Q16206); assay: Spectrophotometric NADH oxidase assay, HeLa plasma membranes; assay type: biochemical
T1 sequence (Q16206 1-610): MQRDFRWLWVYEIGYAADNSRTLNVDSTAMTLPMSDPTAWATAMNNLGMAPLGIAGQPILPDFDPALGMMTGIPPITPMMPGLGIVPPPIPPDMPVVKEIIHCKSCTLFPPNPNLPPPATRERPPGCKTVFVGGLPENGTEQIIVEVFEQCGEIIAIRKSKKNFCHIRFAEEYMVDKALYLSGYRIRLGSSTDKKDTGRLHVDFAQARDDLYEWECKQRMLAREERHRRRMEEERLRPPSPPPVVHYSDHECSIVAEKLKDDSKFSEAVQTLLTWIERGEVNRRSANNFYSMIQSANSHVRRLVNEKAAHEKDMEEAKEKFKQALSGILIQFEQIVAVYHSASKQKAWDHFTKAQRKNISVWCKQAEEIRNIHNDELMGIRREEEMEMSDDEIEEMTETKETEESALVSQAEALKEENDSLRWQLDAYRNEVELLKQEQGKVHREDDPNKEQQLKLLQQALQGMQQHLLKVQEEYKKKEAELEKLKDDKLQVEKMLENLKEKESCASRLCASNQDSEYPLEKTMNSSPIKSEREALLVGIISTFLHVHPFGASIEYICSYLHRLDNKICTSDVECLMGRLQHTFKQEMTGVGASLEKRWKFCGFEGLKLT
Description: Purification of plasma membranes from HeLa cells. HeLa cells were grown as suspension cultures in minimum essential medium (MEM) supplemented with horse serum, diferric transferrin and heparin. Cells were collected by centrifugation for 6 to 15 min at 1,000 to 3,000 rpm. The cell pellets were resuspended in 0.2 mM EDTA in 1 mM NaHCO3 in an approximate ratio of 1 ml per 10^8 cells and incubated on ice for 10 to 30 min to swell the cells. Homogenization was with a Polytron Homogenizer for 30 to 40 sec at 10,500 rpm using a PT-PA 3012/23 or ST-probe in 7 to 8 ml aliquots. To estimate breakage, the cells are monitored by light microscopy before and after homogenization. […]
The homogenates were centrifuged for 10 min at 1,000 rpm (175 g) to remove unbroken cells and nuclei and the supernatant was centrifuged a second time at 1.4 x 10^6 g min (e.g. 1 h at 23,500 g) to prepare a plasma membrane enriched microsome fraction. […] The purity of the plasma membrane was determined to be > 90% by electron microscope morphometry. […]
Spectrophometric assay of NADH oxidase. NADH oxidase activity was determined as the disappearance of NADH measured at 340 nm in a reaction mixture containing 25 mM Tris-MES buffer (pH 7.2), 1 mM KCN to inhibit the low levels of contaminating mitochondrial oxidase activity, and 150 µM NADH at 37°C with constant stirring. […]

[2] = test system: circulating NADH oxidase in the serum; assay: NADH oxidase activity of human serum; assay type: biochemical
Description: Spectrophometric assay of NADH oxidase. NADH oxidase activity was determined as the disappearance of NADH measured at 340 nm in a reaction mixture containing 25 mM Tris-MES buffer (pH 7.2), 1 mM KCN to inhibit the low levels of contaminating mitochondrial oxidase activity, and 150 µM NADH at 37°C with constant stirring. Activity was measured using a Hitachi U3210 spectrophotometer with continuous recording over two intervals of 5 min each. A millimolar extinction coefficient of 6.22 was used to determine specific activity.

[3] = test system: Protein disulfide-thiol interchange activity of HeLa plasma membrane; assay: Protein disulfide-thiol interchange (RNAse activity with cCMP as substrate); assay type: biochemical, human
Description: Estimation of protein disulfide isomerase- (PDI) like activity. Two methods were employed to determine PDI or PDI-like activity.
In the first method, ribonuclease A activity was measured using a spectrophotometric assay based on cCMP as RNAse substrate. Scrambled RNAse ([…]) was incubated together with 0.45 mM cCMP in 50 Mm Tris-MES buffer, pH 6.5, at 30°C in a final volume of 3 ml. […] A variation of this assay was to preincubate scrambled RNAse with transitional endoplasmic reticulum for 20 min in the presence or absence of 1 µM all-trans retinol (using ethanol as control) and in the presence or absence of 1 µM reduced or oxidized glutathione or a mixture of both. After this 20 min of "reactivation" of RNAse, cCMP was added to a final concentration of 0.45 mM to initiate the reaction. The increase of the absorbance at 296 nm was recorded over 25 min and the concentrations of cCMP were determined (E = 0.19 mM^-1cm^-1). Spectrophotometric measurements were with a Hitachi U3210 spectrophotometer with a thermostatic cell compartment maintained at 30°C with continuous stirring.
Preparation of scrambled RNAse substrate. To prepare the oxidized, denatured RNAse substrate (scrambled RNAse), native RNAse A (Sigma, Type 1-AS from bovine pancreas) (30 µg/ml) was incubated 1 h at 35°C in 50 mM Tris-acetate, pH 8.6, containing 9 M urea and 130 mM DTT.
Protein concentration was estimated from spectrophotometric measurement at 280 nm using native RNAse A as standard. For preparation of scrambled RNAse, the reduced RNAse was diluted to 0.5 mg/ml with 0.1 M acetic acid. Solid urea was then added to a final concentration of 10 M after which 0.1 M sarcosine hydrochloride was added and the pH adjusted to 8.5 with 1 M Tris. The mixture then was incubated in the dark for 2-3 days during which time the protein was randomly oxidized. The scrambled product was recovered by acidification to pH 4 with glacial acetic acid and elution from Sephadex G-25 in 0.1 M acetic acid. Fractions containing protein were pooled, adjusted to pH 8 and stored at 4°C.

HeLa cells = assay: Growth of HeLa cells in culture; assay type: cell-based, human; conditions: Homo sapiens, HeLa, 72 h
Description: Growth of cells. HeLa cells (ATCC CCL2), were grown in 150 cm^2 flasks in Minimal Essential Medium (Gibco), pH 7.4. at 37°C with 10% bovine calf serum (heat-inactivated), plus 50 mg/l gentamycin sulfate (Sigma). Cells were trypsinized with Sigma IX trypsin for 1 to 2 min, harvested by scraping and taken up in TD-tris buffer (140 mM NaCl, 5 mM KCl, 0.7 mM Na2HPO4 and 25 mM Tris, pH 7.4) to a final cell concentration of 0.1 g wet weight (gww) per ml.
The number of cells initially plated was subtracted. The results were averages from duplicate experiments.

normal rat kidney cells = assay: Growth of normal rat kidney cells; assay type: cell-based
[4] = test system: NADH oxidase activity of isolated plasma membranes of normal rat kidney cells; assay: NADH oxidase assay, plasma membranes of normal rat kidney cells

## COc1cc(CNC(=O)CCCC/C=C/C(C)C)ccc1O [capsaicin]
[1]
  inhibition of NADH oxidase activity (in words): nearly completely inhibited
[2]
  NADH oxidase activities of human serum, Mean: 0.56
  Ratio, Mean: 0.97
[3]
  Protein disulfide-thiol interchange activity: .95 nmoles/min/mg protein
HeLa cells; read-out: concentration at which growth was 50% inhibited
  IC50: ~1 µM
HeLa cells; read-out: concentration of drug able to inhibit growth by 50%
  IC50: > 10 µM
Normal rat kidney cells
  concentration at which growth is inhibited: > 10^-5 M
[4]
  concentration at which NADH oxidase activity is inhibited: > 10^-5 M
